Here are results for 24 compounds from US6720346B2, “Thiazole benzamide derivatives and pharmaceutical compositions for inhibiting cell proliferation” (Agouron Pharmaceuticals, Inc., priority 2001, dated 2004).

For assay [1], the target named is T1, CDK2/cyclin A (Homo sapiens, UniProt P24941).
T1 construct: made in house; host or cells: CDK2: insect cells (baculovirus); cyclin A: E. coli
Nature of the assay: Inhibition of CDK2/cyclin A retinoblastoma kinase activity (Ki; % inhibition). Format: biochemical. Conditions: for Ki: apparent Ki, CDK2/cyclin A, Rb substrate. A digest of the protocol: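 Radiometric filter assay of CDK2/proteolyzed cyclin A (baculovirus-expressed human CDK2, 10 or 19 nM) phosphorylating an Rb fragment with 25 μM [³²P/³³P]ATP in pH 7.4 HEPES, 2% DMSO, at 30 °C for 60 or 75 min under initial-rate conditions. Library compounds screened at 30 nM for % inhibition; apparent Ki from concentration series fit to competitive or tight-binding inhibition equations.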

Assay [2] has as its target T2, human CDK4/cyclin D3 (Homo sapiens, UniProt P11802).
T2 construct: made in house; host or cells: insect cells co-infected with baculovirus vectors
The experiment in a line: Inhibition of CDK4/cyclin D retinoblastoma kinase activity (Ki; % inhibition). Type of assay: biochemical. Conditions: for Ki: apparent Ki, CDK4/cyclin D3, Rb substrate. A digest of the protocol: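 Insect-cell-expressed CDK4 with truncated cyclin D3 (1-264), 5 nM, phosphorylating His-tagged Rb fragment (386-928) with 25 μM [32/33P]ATP at pH 7.4, 30 °C, 20 min (60 min for tight binders). Filter capture, phosphorimager read; % inhibition at 30 nM compound, Ki from competitive or tight-binding fits.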

For assay [3], the system named is HCT-116 cell line. The experiment in a line: Inhibition of cell growth, MTT tetrazolium salt assay. Format: cell-based. As to conditions: for IC50: Homo sapiens, HCT-116, 120 h, MTT, three to five days. A digest of the protocol:
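Cells in McCoy's 5A medium were given 4 h before compound addition in 0.5% (v/v) DMSO, then incubated 3–5 days at 37 °C, 5% CO2. After 4 h with 0.2 mg/mL MTT, DMSO-solubilized formazan was read at 540 nm; 50% and 90% growth-inhibitory concentrations came from semi-log plots against vehicle controls.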
On the technique in general: Formazan colour is commonly taken as a measure of viable cells.

[4] abbreviates: HCT-116 cells, 0.25 μM compound.

T2 sequence (P11802 whole entry): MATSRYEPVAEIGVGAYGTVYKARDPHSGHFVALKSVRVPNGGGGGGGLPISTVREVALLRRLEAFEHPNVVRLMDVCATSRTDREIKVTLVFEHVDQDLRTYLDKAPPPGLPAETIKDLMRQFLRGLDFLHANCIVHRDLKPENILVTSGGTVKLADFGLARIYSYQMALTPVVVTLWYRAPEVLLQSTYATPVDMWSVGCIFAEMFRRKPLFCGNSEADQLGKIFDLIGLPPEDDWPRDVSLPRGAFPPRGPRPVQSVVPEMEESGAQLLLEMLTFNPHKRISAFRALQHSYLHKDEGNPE
T2 sequence (P30281 1-264 partner limits assumed): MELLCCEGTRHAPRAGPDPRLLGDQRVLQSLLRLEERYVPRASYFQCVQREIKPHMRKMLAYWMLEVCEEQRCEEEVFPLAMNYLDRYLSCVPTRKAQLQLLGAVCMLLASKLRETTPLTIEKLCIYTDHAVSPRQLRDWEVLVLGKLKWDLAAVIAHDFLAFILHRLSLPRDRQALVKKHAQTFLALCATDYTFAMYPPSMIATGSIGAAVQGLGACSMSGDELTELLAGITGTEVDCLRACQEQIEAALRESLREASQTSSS

As to `CC(C)CCNC(=O)c1ccc(Nc2nc(N)c(C(=O)c3c(F)cccc3F)s2)cc1` [Example G247], the “CDK2 % Inhibition at 0.03 μM” value in assay [1] (0.03 μM compound) was found to be 17%. The “CDK4 % Inhibition at 0.03 μM” value in assay [2] (0.03 μM compound) is 23%. Besides, in assay [3] (HCT-116 cells, 0.1 μM compound), the “HCT-116 % Inhibition at 0.1 μM” value turned out to be 12%. Also, the “HCT-116 % Inhibition at 0.25 μM” value in assay [3] (setting [4]) stood at 54%.
Broadly, the IC50 is the point on the concentration scale where inhibition reaches its midpoint. For `Nc1nc(Nc2ccc(C(=O)NCCO)cc2)sc1C(=O)c1c(Cl)cccc1Cl` [Example B2, 4-[4-Amino-5-(2,6-dichloro-benzoyl)-thiazol-2-ylamino]-N-(2-hydroxy-ethyl)-benzamide], the Ki in assay [1] came out at 96 nM; in assay [2], 18 nM. Further, the IC50 in assay [3] is 3600 nM.
For `Nc1nc(Nc2ccc(C(=O)N3CCN(C=O)CC3)cc2)sc1C(=O)c1c(F)cccc1F` [Example G78], in assay [1] (at 0.03 μM), the “CDK2 % Inhibition at 0.03 μM” value came out at 11%. Moreover, the “CDK4 % Inhibition at 0.03 μM” value in assay [2] (at 0.03 μM) turned out to be 13%. For the same compound, in assay [3] (HCT-116, at 0.25 μM), the “HCT-116 % Inhibition at 0.25 μM” value was found to be 58%.
`CCCCC(CC)NC(=O)c1ccc(Nc2nc(N)c(C(=O)c3c(F)cccc3F)s2)cc1` (stereo not drawn) [Example G90]: in assay [1] (at 0.03 μM), the “CDK2 % Inhibition at 0.03 μM” value is reported as −30%. The “CDK4 % Inhibition at 0.03 μM” value in assay [2] (at 0.03 μM) is listed as 2%. Besides, in assay [3] (HCT-116, at 0.1 μM), the “HCT-116 % Inhibition at 0.1 μM” value is listed as 24%. The “HCT-116 % Inhibition at 0.25 μM” value in assay [3] (HCT-116, at 0.25 μM) came to 54%.
As to `Cn1cncc1CNC(=O)c1ccc(Nc2nc(N)c(C(=O)c3c(F)cccc3F)s2)cc1` [Example A64, 4-[4-Amino-5-(2,6-difluoro-benzoyl)-thiazol-2-ylamino]-N-(1-methylimidazol-5-yl-methyl)-benzamide], the Ki in assay [1] worked out at 19 nM; in assay [2], 22 nM. The IC50 in assay [3] is over 5000 nM.
As for `CN(CC(O)CO)C(=O)c1ccc(Nc2nc(N)c(C(=O)c3c(F)cccc3F)s2)cc1` (stereo not drawn) [Example G174], the “CDK2 % Inhibition at 0.03 μM” value in assay [1] (at 0.03 μM) stood at 0%. Moreover, in assay [2] (at 0.03 μM), the “CDK4 % Inhibition at 0.03 μM” value came to 15%. Further, in assay [3] (HCT-116, at 0.1 μM), the “HCT-116 % Inhibition at 0.1 μM” value is reported as 28%. For the same compound, the “HCT-116 % Inhibition at 0.25 μM” value in assay [3] (HCT-116, at 0.25 μM) worked out at 56%.
Turning to `Nc1nc(Nc2ccc(C(=O)Nc3ccc(Nc4ccccc4)cc3)cc2)sc1C(=O)c1c(F)cccc1F` [Example G305], the “CDK2 % Inhibition at 0.03 μM” value in assay [1] (0.03 μM compound) is recorded as −6%. For the same compound, in assay [2] (0.03 μM compound), the “CDK4 % Inhibition at 0.03 μM” value is 11%. For the same compound, the “HCT-116 % Inhibition at 0.1 μM” value in assay [3] (HCT-116 cells, 0.1 μM compound) turned out to be 29%. In addition, the “HCT-116 % Inhibition at 0.25 μM” value in assay [3] (setting [4]) amounted to 81%.
For the compound `CC(NC(=O)c1ccc(Nc2nc(N)c(C(=O)c3c(F)cccc3F)s2)cc1)c1ccccc1` (stereo not drawn) [Example G162], the “CDK2 % Inhibition at 0.03 μM” value in assay [1] (at 0.03 μM) came out at 25%. For the same compound, the “CDK4 % Inhibition at 0.03 μM” value in assay [2] (at 0.03 μM) is reported as 20%. In addition, the “HCT-116 % Inhibition at 0.1 μM” value in assay [3] (HCT-116, at 0.1 μM) was determined as 3%. In assay [3] (HCT-116, at 0.25 μM), the “HCT-116 % Inhibition at 0.25 μM” value came to 84%.
Regarding `C[C@H](NC(=O)c1ccc(Nc2nc(N)c(C(=O)c3c(F)cccc3F)s2)cc1)[C@@H]1CCCN1C` [Example A69], the Ki in assay [1] came out at 14.6 nM; in assay [2] it was 234 nM. Besides, the IC50 in assay [3] turned out to be 2100 nM.
As to `Nc1nc(Nc2ccc(C(=O)Nc3cccc(O)c3)cc2)sc1C(=O)c1c(F)cccc1F` [Example G378], in assay [1] (0.03 μM compound), the “CDK2 % Inhibition at 0.03 μM” value came out at 40%. Moreover, the “CDK4 % Inhibition at 0.03 μM” value in assay [2] (0.03 μM compound) turned out to be 8%. Moreover, the “HCT-116 % Inhibition at 0.1 μM” value in assay [3] (HCT-116 cells, 0.1 μM compound) was determined as 27%. In addition, the “HCT-116 % Inhibition at 0.25 μM” value in assay [3] (setting [4]) is recorded as 60%.
On the same counts, the results for `CCOc1ccc(NC(=O)c2ccc(Nc3nc(N)c(C(=O)c4c(F)cccc4F)s3)cc2)cc1` [Example G313] are 11%, 12%, 10% and 57%.
For the compound `Nc1nc(Nc2ccc(C(=O)NCC(O)CO)cc2)sc1C(=O)c1c(Cl)cccc1Cl` (stereo not drawn) [Example B3, 4-[4-Amino-5-(2,6-dichloro-benzoyl)-thiazol-2-ylamino]-N-(2,3-dihydroxy-propyl)-benzamide], the results for the Ki in assay [1] and in assay [2] were 66 nM and 8 nM, respectively. For the same compound, in assay [3], the IC50 is 18000 nM.
With `CC(C)CN(C)C(=O)c1ccc(Nc2nc(N)c(C(=O)c3c(F)cccc3F)s2)cc1` [Example G72], the “CDK2 % Inhibition at 0.03 μM” value in assay [1] (at 0.03 μM) was found to be 2%. Further, the “CDK4 % Inhibition at 0.03 μM” value in assay [2] (at 0.03 μM) is listed as 12%. Also, in assay [3] (HCT-116, at 0.25 μM), the “HCT-116 % Inhibition at 0.25 μM” value was determined as 54%.
Consider `CN(C)CCN(C)C(=O)c1ccc(Nc2nc(N)c(C(=O)c3c(F)cccc3F)s2)cc1` [Example G57], for which the “CDK2 % Inhibition at 0.03 μM” value in assay [1] (at 0.03 μM) is given as 17%. The “CDK4 % Inhibition at 0.03 μM” value in assay [2] (at 0.03 μM) was determined as 19%. Besides, the “HCT-116 % Inhibition at 0.25 μM” value in assay [3] (HCT-116, at 0.25 μM) is 51%.
On the same counts, the results for `CCCCN(CC#N)C(=O)c1ccc(Nc2nc(N)c(C(=O)c3c(F)cccc3F)s2)cc1` [Example G9] are −1%, 2% and 46%.
As for `Nc1nc(Nc2ccc(C(=O)Nc3ccon3)cc2)sc1C(=O)c1c(F)cccc1F` [Example G213], in assay [1] (0.03 μM compound), the “CDK2 % Inhibition at 0.03 μM” value is −1%. Moreover, the “CDK4 % Inhibition at 0.03 μM” value in assay [2] (0.03 μM compound) is reported as 9%. Further, the “HCT-116 % Inhibition at 0.1 μM” value in assay [3] (HCT-116 cells, 0.1 μM compound) was determined as 16%. Besides, in assay [3] (setting [4]), the “HCT-116 % Inhibition at 0.25 μM” value came to 49%.
In the same order, the values of `CN(C)CCN1CCN(C(=O)c2ccc(Nc3nc(N)c(C(=O)c4c(F)cccc4F)s3)cc2)CC1` [Example G382] are −17%, 8%, 17% and 47%.
`Cc1ccc(CNC(=O)c2ccc(Nc3nc(N)c(C(=O)c4c(F)cccc4F)s3)cc2)cc1C` [Example G338]: in assay [1] (0.03 μM compound), the “CDK2 % Inhibition at 0.03 μM” value was 31%. The “CDK4 % Inhibition at 0.03 μM” value in assay [2] (0.03 μM compound) turned out to be 27%. For the same compound, the “HCT-116 % Inhibition at 0.1 μM” value in assay [3] (HCT-116 cells, 0.1 μM compound) is recorded as 18%. Moreover, the “HCT-116 % Inhibition at 0.25 μM” value in assay [3] (setting [4]) is recorded as 54%.
On the same counts, the results for `Nc1nc(Nc2ccc(C(=O)NCCOCCO)cc2)sc1C(=O)c1c(F)cccc1F` [Example G264] are −9%, 13%, 22% and 53%.
On the same counts, the results for `Cc1ccc(O)c(NC(=O)c2ccc(Nc3nc(N)c(C(=O)c4c(F)cccc4F)s3)cc2)c1` [Example G396] are −6%, 9%, 14% and 67%.
Take `CCC(CO)NC(=O)c1ccc(Nc2nc(N)c(C(=O)c3c(F)cccc3F)s2)cc1` (stereo not drawn) [Example G183]: the “CDK2 % Inhibition at 0.03 μM” value in assay [1] (at 0.03 μM) amounted to 23%. For the same compound, the “CDK4 % Inhibition at 0.03 μM” value in assay [2] (at 0.03 μM) stood at 38%. In assay [3] (HCT-116, at 0.1 μM, 0.1 µM), the “HCT-116 % Inhibition at 0.1 μM” value was determined as 11%. Besides, in assay [3] (HCT-116, at 0.25 μM, 0.25 µM), the “HCT-116 % Inhibition at 0.25 μM” value is listed as 48%.
As to `Nc1nc(Nc2ccc(C(=O)NC3Cc4ccccc4C3)cc2)sc1C(=O)c1c(F)cccc1F` [Example A22, 4-[4-Amino-5-(2,6-difluoro-benzoyl)-thiazol-2-ylamino]-N-indan-2-yl-benzamide], the Ki in assay [1] is 6 nM; in assay [2], 5 nM. The IC50 in assay [3] was found to be 170 nM.
Take `Nc1nc(Nc2ccc(C(=O)NCCc3ccccc3)cc2)sc1C(=O)c1c(F)cccc1F` [Example G91]: the “CDK2 % Inhibition at 0.03 μM” value in assay [1] (at 0.03 μM) is recorded as −19%. In addition, the “CDK4 % Inhibition at 0.03 μM” value in assay [2] (at 0.03 μM) stood at 9%. Further, the “HCT-116 % Inhibition at 0.1 μM” value in assay [3] (HCT-116, at 0.1 μM) is recorded as 34%. Also, in assay [3] (HCT-116, at 0.25 μM), the “HCT-116 % Inhibition at 0.25 μM” value is 68%.
`CN(CC#N)C(=O)c1ccc(Nc2nc(N)c(C(=O)c3c(F)cccc3F)s2)cc1` [Example G195]: in assay [1] (at 0.03 μM), the “CDK2 % Inhibition at 0.03 μM” value was 20%. Further, in assay [2] (at 0.03 μM), the “CDK4 % Inhibition at 0.03 μM” value is on record as 26%. Besides, the “HCT-116 % Inhibition at 0.1 μM” value in assay [3] (HCT-116, at 0.1 μM) was determined as 17%. Further, in assay [3] (HCT-116, at 0.25 μM), the “HCT-116 % Inhibition at 0.25 μM” value stood at 47%.
